Source: ChEMBL document CHEMBL3885881, “DrugMatrix”

Organism: Rattus norvegicus
Test: DrugMatrix - Regimen: Daily Repeat
Format: toxicity, organism-based, Sprague-Dawley
Set-up: regimen Daily Repeat, gender Male, age 6-8 weeks
Details: in vivo, po, 38 mg/kg, route oral GAVAGE, dose level Low, vehicle 100 % WATER; for BASOPHIL / EOSINOPHIL / ERYTHROCYTE COUNT / HEMATOCRIT / HEMOGLOBIN / LEUKOCYTE COUNT / LYMPHOCYTE / MEAN CORPUSCULAR HEMOGLOBIN / MEAN CORPUSCULAR HEMOGLOBIN CONCENTRATION / MEAN CORPUSCULAR VOLUME / MONOCYTE / NEUTROPHIL / PLATELET COUNT: tissue Blood; for ALANINE AMINOTRANSFERASE / ALBUMIN / ALKALINE PHOSPHATASE / ASPARTATE AMINOTRANSFERASE / BLOOD UREA NITROGEN / CARBON DIOXIDE / CHLORIDE / CHOLESTEROL / CREATINE PHOSPHOKINASE / CREATININE / GLUCOSE / LACTATE DEHYDROGENASE / LIPASE / PHOSPHORUS / POTASSIUM / SODIUM / TOTAL BILIRUBIN / TOTAL PROTEIN / URIC ACID: tissue Plasma

Which results are given for `O=C(O)C1CC1` [CYCLOPROPANE CARBOXYLIC ACID]?
BASOPHIL (72 h, time 3 day): 0%; EOSINOPHIL (72 h, time 3 day): 0.67%; ERYTHROCYTE COUNT (72 h, time 3 day): 7.06 x10E6/uL; HEMATOCRIT (72 h, time 3 day): 43.67%; HEMOGLOBIN (72 h, time 3 day): 14.6 G/DL; LEUKOCYTE COUNT (72 h, time 3 day): 8.63 x10E3/uL; LYMPHOCYTE (72 h, time 3 day): 83.67%; MEAN CORPUSCULAR HEMOGLOBIN (72 h, time 3 day): 20.67 pg; MEAN CORPUSCULAR HEMOGLOBIN CONCENTRATION (72 h, time 3 day): 33.47 G/DL; MEAN CORPUSCULAR VOLUME (72 h, time 3 day): 61.77 fL; MONOCYTE (72 h, time 3 day): 2.33%; NEUTROPHIL (72 h, time 3 day): 13.33%; PLATELET COUNT (72 h, time 3 day): 1012 x10E3/uL; ALANINE AMINOTRANSFERASE (72 h, time 3 day): 44.67 u/L; ALBUMIN (72 h, time 3 day): 4.37 G/DL; ALKALINE PHOSPHATASE (72 h, time 3 day): 346.67 u/L; ASPARTATE AMINOTRANSFERASE (72 h, time 3 day): 72.33 u/L; BLOOD UREA NITROGEN (72 h, time 3 day): 15 mg/dL; CARBON DIOXIDE (72 h, time 3 day): 23 mmol/L; CHLORIDE (72 h, time 3 day): 103.67 MEQ/L; CHOLESTEROL (72 h, time 3 day): 65.67 mg/dL; CREATINE PHOSPHOKINASE (72 h, time 3 day): 241.33 u/L; CREATININE (72 h, time 3 day): 0.3 mg/dL; GLUCOSE (72 h, time 3 day): 151 mg/dL; LACTATE DEHYDROGENASE (72 h, time 3 day): 152.33 u/L; LIPASE (72 h, time 3 day): 9 u/L; PHOSPHORUS (72 h, time 3 day): 9.83 mg/dL; POTASSIUM (72 h, time 3 day): 5.7 MEQ/L; SODIUM (72 h, time 3 day): 145.67 MEQ/L; TOTAL BILIRUBIN (72 h, time 3 day): 0.1 mg/dL; TOTAL PROTEIN (72 h, time 3 day): 6.03 G/DL; URIC ACID (72 h, time 3 day): 1.1 mg/dL; BASOPHIL (120 h, time 5 day): 0.33%; EOSINOPHIL (120 h, time 5 day): 1%; ERYTHROCYTE COUNT (120 h, time 5 day): 7.12 x10E6/uL; HEMATOCRIT (120 h, time 5 day): 44.63%; HEMOGLOBIN (120 h, time 5 day): 14.4 G/DL; LEUKOCYTE COUNT (120 h, time 5 day): 10.9 x10E3/uL; LYMPHOCYTE (120 h, time 5 day): 85%; MEAN CORPUSCULAR HEMOGLOBIN (120 h, time 5 day): 20.2 pg; MEAN CORPUSCULAR HEMOGLOBIN CONCENTRATION (120 h, time 5 day): 32.27 G/DL; MEAN CORPUSCULAR VOLUME (120 h, time 5 day): 62.67 fL; MONOCYTE (120 h, time 5 day): 2.33%; NEUTROPHIL (120 h, time 5 day): 12.33%; PLATELET COUNT (120 h, time 5 day): 970.67 x10E3/uL; ALANINE AMINOTRANSFERASE (120 h, time 5 day): 47.33 u/L; ALBUMIN (120 h, time 5 day): 4.6 G/DL; ALKALINE PHOSPHATASE (120 h, time 5 day): 373.67 u/L; ASPARTATE AMINOTRANSFERASE (120 h, time 5 day): 86 u/L; BLOOD UREA NITROGEN (120 h, time 5 day): 17.33 mg/dL; CARBON DIOXIDE (120 h, time 5 day): 20.67 mmol/L; CHLORIDE (120 h, time 5 day): 99.33 MEQ/L; CHOLESTEROL (120 h, time 5 day): 73.67 mg/dL; CREATINE PHOSPHOKINASE (120 h, time 5 day): 418 u/L; CREATININE (120 h, time 5 day): 0.3 mg/dL; GLUCOSE (120 h, time 5 day): 133.33 mg/dL; LACTATE DEHYDROGENASE (120 h, time 5 day): 454 u/L; LIPASE (120 h, time 5 day): 9 u/L; PHOSPHORUS (120 h, time 5 day): 10.13 mg/dL; POTASSIUM (120 h, time 5 day): 5.37 MEQ/L; SODIUM (120 h, time 5 day): 143.33 MEQ/L; TOTAL BILIRUBIN (120 h, time 5 day): 0.1 mg/dL; TOTAL PROTEIN (120 h, time 5 day): 6.53 G/DL; URIC ACID (120 h, time 5 day): 1.03 mg/dL
